Results published in patent US5441941A, “1,2-dihydroellipticines with activity against CNS specific cancer” (The United States of America as represented by the …, priority 1993, dated 1995).

Columns and labels:
OVCAR-3 = assay: NCI in vitro screen, SRB percent growth, Ovarian Cancer
SNB-75 = assay: NCI in vitro screen, SRB percent growth, CNS Cancer
UACC-257 = assay: NCI in vitro screen, SRB percent growth, Melanoma
CNS cancer cell lines = assay: NCI in vitro screen, overall result on CNS cancer cell lines; details: Tables I and II
XF 498 = assay: NCI in vitro screen, SRB percent growth, CNS Cancer
EKVX = assay: cells; details: Homo sapiens
LXFL 529 = assay: cells; details: Homo sapiens
MALME-3M = assay: NCI in vitro screen, SRB percent growth, Melanoma
CAKI-1 = assay: NCI in vitro screen, SRB percent growth, Renal Cancer
SW-620 = assay: cells; details: Homo sapiens
RXF-631 = assay: NCI in vitro screen, SRB percent growth, Renal Cancer
U251 = assay: NCI in vitro screen, SRB percent growth, CNS Cancer
M14 = assay: NCI in vitro screen, SRB percent growth, Melanoma
M19-MEL = assay: NCI in vitro screen, SRB percent growth, Melanoma
NCI-H460 = assay: NCI in vitro screen, SRB percent growth, Non-Small Cell Lung Cancer
SF-295 = assay: NCI in vitro screen, SRB percent growth, CNS Cancer
DLD-1 = assay: cells; details: Homo sapiens
DMS 114 = assay: cells; details: Homo sapiens
[1] = Log10 Concentration -4.0, 100 µM
[2] = Log10 Concentration -7.0, 0.1 µM
[3] = LXFL 529, read-out: Percent Growth
[4] = SW-620, read-out: Percent Growth
[5] = DLD-1, read-out: Percent Growth

For `COc1ccc2[nH]c3c(C)c4c(c(C)c3c2c1)CN(C)C=C4` [Formula VII], the “Percent Growth” value (OVCAR-3; [1]) was -31%, the “Percent Growth” value (OVCAR-3; Log10 Concentration -5.0) was 10% and the “Percent Growth” value (OVCAR-3; Log10 Concentration -6.0, 1 µM) was 74%. For the same compound, the “Percent Growth” value (OVCAR-3; [2]) was 91%, the “Percent Growth” value (OVCAR-3; Log10 Concentration -8.0) was 98% and the TGI (OVCAR-3; PG=0) was 17.3 µM. For the same compound, the GI50 (OVCAR-3; PG=+50) was 2.39 µM, the CC50 (OVCAR-3; read-out: LC-50, PG=-50) was greater than 100 µM and the “Percent Growth” value (SNB-75; [1]) was -58%. The “Percent Growth” value (SNB-75; Log10 Concentration -5.0) was -78%, the “Percent Growth” value (SNB-75; Log10 Concentration -6.0, 1 µM) was -53% and the “Percent Growth” value (SNB-75; [2]) was 86%. The “Percent Growth” value (SNB-75; Log10 Concentration -8.0) was 126%, the TGI (SNB-75; PG=0) was 0.416 µM and the CC50 (SNB-75; read-out: LC-50, PG=-50) was 0.953 µM. For the same compound, the “Percent Growth” value (UACC-257; [1]) was -5%, the “Percent Growth” value (UACC-257; Log10 Concentration -6.0, 1 µM) was 108% and the “Percent Growth” value (UACC-257; [2]) was 113%. For the same compound, the “Percent Growth” value (UACC-257; Log10 Concentration -8.0) was 110%, the TGI (UACC-257; PG=0) was 80.7 µM and the GI50 (UACC-257; PG=+50) was 9.63 µM. For the same compound, the CC50 (UACC-257; read-out: LC-50, PG=-50) was greater than 100 µM, the “effect against CNS cancer cell lines” value (CNS cancer cell lines) was “particularly effective against CNS cancer cell lines” and the “Percent Growth” value (XF 498; [1]) was -60%. For the same compound, the “Percent Growth” value (XF 498; Log10 Concentration -5.0) was -25%, the “Percent Growth” value (XF 498; Log10 Concentration -6.0, 1 µM) was 81% and the “Percent Growth” value (XF 498; [2]) was 140%. For the same compound, the “Percent Growth” value (XF 498; Log10 Concentration -8.0) was 174%, the TGI (XF 498; PG=0) was 5.82 µM and the GI50 (XF 498; PG=+50) was 1.97 µM. The CC50 (XF 498; read-out: LC-50, PG=-50) was 52.7 µM, the GI50 (EKVX) was 0.774 µM and the activity at 0.01 µM (EKVX; read-out: Percent Growth) was 114%. For the same compound, the activity at 0.1 µM (EKVX; read-out: Percent Growth) was 108%, the activity at 1 µM (EKVX; read-out: Percent Growth) was 43% and the activity at 10 µM (EKVX; read-out: Percent Growth) was 3%. It also gave an activity at 100 µM (EKVX; read-out: Percent Growth) of -11%, an IC (TGI) (EKVX; read-out: TGI) of 16.5 µM and a GI50 (LXFL 529; LXFL 529) of 0.129 µM. It also gave a CC50 (LXFL 529; LXFL 529, read-out: LC-50) of 29.1 µM, an activity at 0.01 µM (LXFL 529; [3]) of 66% and an activity at 0.1 µM (LXFL 529; [3]) of 54%. The activity at 1 µM (LXFL 529; [3]) was 14%, the activity at 10 µM (LXFL 529; [3]) was -38% and the activity at 100 µM (LXFL 529; [3]) was -64%. For the same compound, the IC (TGI) (LXFL 529; LXFL 529, read-out: TGI) was 1.88 µM, the “Percent Growth” value (MALME-3M; Log10 Concentration -5.0) was -31% and the “Percent Growth” value (MALME-3M; Log10 Concentration -6.0, 1 µM) was 55%. The “Percent Growth” value (MALME-3M; [2]) was 110%, the “Percent Growth” value (MALME-3M; Log10 Concentration -8.0) was 112% and the TGI (MALME-3M; PG=0) was 4.37 µM. For the same compound, the GI50 (MALME-3M; PG=+50) was 1.41 µM, the CC50 (MALME-3M; read-out: LC-50, PG=-50) was greater than 100 µM and the “Percent Growth” value (CAKI-1; [1]) was -11%. The “Percent Growth” value (CAKI-1; Log10 Concentration -5.0) was 38%, the “Percent Growth” value (CAKI-1; Log10 Concentration -6.0, 1 µM) was 83% and the “Percent Growth” value (CAKI-1; [2]) was 107%. For the same compound, the “Percent Growth” value (CAKI-1; Log10 Concentration -8.0) was 110%, the TGI (CAKI-1; PG=0) was 60.7 µM and the GI50 (CAKI-1; PG=+50) was 5.5 µM. The CC50 (CAKI-1; read-out: LC-50, PG=-50) was greater than 100 µM, the GI50 (SW-620; SW-620) was 1.05 µM and the CC50 (SW-620; SW-620, read-out: LC-50) was greater than 100 µM. The activity at 0.01 µM (SW-620; [4]) was 89%, the activity at 0.1 µM (SW-620; [4]) was 77% and the activity at 1 µM (SW-620; [4]) was 51%. It also gave an activity at 10 µM (SW-620; [4]) of 18%, an activity at 100 µM (SW-620; [4]) of -39% and an IC (TGI) (SW-620; SW-620, read-out: TGI) of 20.4 µM. For the same compound, the “Percent Growth” value (RXF-631; [1]) was -29%, the “Percent Growth” value (RXF-631; Log10 Concentration -5.0) was 18% and the “Percent Growth” value (RXF-631; Log10 Concentration -6.0, 1 µM) was 38%. The “Percent Growth” value (RXF-631; [2]) was 83%, the “Percent Growth” value (RXF-631; Log10 Concentration -8.0) was 106% and the TGI (RXF-631; PG=0) was 24.3 µM. For the same compound, the GI50 (RXF-631; PG=+50) was 0.536 µM, the CC50 (RXF-631; read-out: LC-50, PG=-50) was greater than 100 µM and the “Percent Growth” value (U251; [1]) was -47%. For the same compound, the “Percent Growth” value (U251; Log10 Concentration -5.0) was -45%, the “Percent Growth” value (U251; Log10 Concentration -6.0, 1 µM) was 3% and the “Percent Growth” value (U251; [2]) was 87%. For the same compound, the TGI (U251; PG=0) was 1.18 µM, the GI50 (U251; PG=+50) was 0.276 µM and the CC50 (U251; read-out: LC-50, PG=-50) was greater than 100 µM. For the same compound, the “Percent Growth” value (M14; [1]) was -98%, the “Percent Growth” value (M14; Log10 Concentration -5.0) was 40% and the “Percent Growth” value (M14; Log10 Concentration -6.0, 1 µM) was 103%. The “Percent Growth” value (M14; [2]) was 111%, the “Percent Growth” value (M14; Log10 Concentration -8.0) was 99% and the TGI (M14; PG=0) was 19.6 µM. For the same compound, the GI50 (M14; PG=+50) was 7.01 µM, the CC50 (M14; read-out: LC-50, PG=-50) was 45.2 µM and the “Percent Growth” value (M19-MEL; [1]) was -62%. For the same compound, the “Percent Growth” value (M19-MEL; Log10 Concentration -5.0) was -36%, the “Percent Growth” value (M19-MEL; Log10 Concentration -6.0, 1 µM) was 48% and the “Percent Growth” value (M19-MEL; [2]) was 95%. For the same compound, the “Percent Growth” value (M19-MEL; Log10 Concentration -8.0) was 117%, the TGI (M19-MEL; PG=0) was 3.7 µM and the GI50 (M19-MEL; PG=+50) was 0.899 µM. For the same compound, the CC50 (M19-MEL; read-out: LC-50, PG=-50) was 34.7 µM, the “Percent Growth” value (NCI-H460; [1]) was -71% and the “Percent Growth” value (NCI-H460; Log10 Concentration -6.0, 1 µM) was 67%. The “Percent Growth” value (NCI-H460; [2]) was 85%, the “Percent Growth” value (NCI-H460; Log10 Concentration -8.0) was 93% and the TGI (NCI-H460; PG=0) was 9.4 µM. For the same compound, the GI50 (NCI-H460; PG=+50) was 1.78 µM, the CC50 (NCI-H460; read-out: LC-50, PG=-50) was 49.5 µM and the “Percent Growth” value (SF-295; [1]) was -51%. For the same compound, the “Percent Growth” value (SF-295; Log10 Concentration -5.0) was -30%, the “Percent Growth” value (SF-295; Log10 Concentration -6.0, 1 µM) was 11% and the “Percent Growth” value (SF-295; [2]) was 65%. For the same compound, the “Percent Growth” value (SF-295; Log10 Concentration -8.0) was 88%, the TGI (SF-295; PG=0) was 1.89 µM and the GI50 (SF-295; PG=+50) was 0.191 µM. For the same compound, the CC50 (SF-295; read-out: LC-50, PG=-50) was 89.5 µM, the GI50 (DLD-1; DLD-1) was 3.23 µM and the CC50 (DLD-1; DLD-1, read-out: LC-50) was greater than 100 µM. For the same compound, the activity at 0.01 µM (DLD-1; [5]) was 103%, the activity at 0.1 µM (DLD-1; [5]) was 99% and the activity at 1 µM (DLD-1; [5]) was 75%. The activity at 10 µM (DLD-1; [5]) was 26%, the activity at 100 µM (DLD-1; [5]) was -15% and the IC (TGI) (DLD-1; DLD-1, read-out: TGI) was 42.3 µM. For the same compound, the GI50 (DMS 114; DMS-114) was 0.183 µM and the IC (TGI) (DMS 114; DMS-114, read-out: TGI) was 1.7 µM.
